Measurements reported in ChEMBL document CHEMBL5724914, “Linking interpersonal differences in gut microbiota composition and drug biotransformation activity” (2024).

Assays:
[1] = (§1) The drug is tested on Z-024 corresponding to pig gut metagenome with ENA study accession number: PRJEB37062 and ENA sample accession number: ERS12561823 for biotransformation under anaerobic condition. The drug concentrations were measured over 9 timepoints collected between 0 and 24 hours of incubation by liquid-chromatography-coupled mass spectrometry (LC–MS); details: 2 µM
[2] = as §1, with “WLS-350” for “Z-024”, “human” for “pig”, “ERS12561789” for “ERS12561823”; details: 2 µM
[3] = as §1, with “Z-018” for “Z-024”, “ERS12561817” for “ERS12561823”; details: 2 µM
[4] = as §1, with “WLS-220” for “Z-024”, “human” for “pig”, “ERS12561769” for “ERS12561823”; details: 2 µM
[5] = as §1, with “Z-003” for “Z-024”, “ERS12561803” for “ERS12561823”; details: 2 µM
[6] = human gut metagenome, 24 h, 2 µM
[7] = as §1, with “Z-021” for “Z-024”, “to” for “to pig gut”, “ERS12561820” for “ERS12561823”; details: 2 µM
[8] = human gut metagenome, 24 h, 2 µM; remark: listed apart in the source
[9] = human gut metagenome, 24 h, 2 µM; remark: listed apart in the source
[10] = as §1, with “WLS-006” for “Z-024”, “human” for “pig”, “ERS12561741” for “ERS12561823”; details: 2 µM
[11] = human gut metagenome, 24 h, 2 µM; remark: listed apart in the source
[12] = as §1, with “Z-001” for “Z-024”, “mouse” for “pig”, “ERS12561801” for “ERS12561823”; details: 2 µM
[13] = as §1, with “Z-025” for “Z-024”, “rabbit” for “pig”, “ERS12561824” for “ERS12561823”; details: 2 µM
[14] = human gut metagenome, 24 h, 2 µM; remark: listed apart in the source
[15] = human gut metagenome, 24 h, 2 µM; remark: listed apart in the source
[16] = human gut metagenome, 24 h, 2 µM; remark: listed apart in the source
[17] = as §1, with “Z-007” for “Z-024”, “rat” for “pig”, “ERS12561807” for “ERS12561823”; details: 2 µM
[18] = human gut metagenome, 24 h, 2 µM; remark: listed apart in the source
[19] = human gut metagenome, 24 h, 2 µM; remark: listed apart in the source
[20] = as §1, with “WLS-310” for “Z-024”, “human” for “pig”, “ERS12561785” for “ERS12561823”; details: 2 µM
Further: call rule not given here.

Structure (SMILES) | Bacterial Biotransformation [1] | Bacterial Biotransformation [2] | Bacterial Biotransformation [3] | Bacterial Biotransformation [4] | Bacterial Biotransformation [5] | Bacterial Biotransformation [6] | Bacterial Biotransformation [7] | Bacterial Biotransformation [8] | Bacterial Biotransformation [9] | Bacterial Biotransformation [10] | Bacterial Biotransformation [11] | Bacterial Biotransformation [12] | Bacterial Biotransformation [13] | Bacterial Biotransformation [14] | Bacterial Biotransformation [15] | Bacterial Biotransformation [16] | Bacterial Biotransformation [17] | Bacterial Biotransformation [18] | Bacterial Biotransformation [19] | Bacterial Biotransformation [20]
Cc1cc(C)cc(OCC2CNC(=O)O2)c1 (stereo not given) [METAXALONE] | Compound NOT metabolized | Compound metabolized | Compound NOT metabolized | Compound metabolized | Compound NOT metabolized | Compound metabolized | Compound NOT metabolized | Compound NOT metabolized | Compound metabolized | Compound metabolized | Compound metabolized | Compound NOT metabolized | Compound NOT metabolized | Compound NOT metabolized | Compound metabolized | Compound metabolized | Compound NOT metabolized | Compound metabolized | Compound metabolized | Compound metabolized
COC(=O)C(c1ccccc1)C1CCCCN1 (stereo not given) [METHYLPHENIDATE] | Compound metabolized | Compound NOT metabolized | Compound metabolized | Compound metabolized | Compound metabolized | Compound NOT metabolized | Compound metabolized | Compound NOT metabolized | Compound metabolized | Compound NOT metabolized | Compound NOT metabolized | Compound metabolized | Compound NOT metabolized | Compound NOT metabolized | Compound metabolized | Compound NOT metabolized | Compound NOT metabolized | Compound NOT metabolized | Compound NOT metabolized | Compound NOT metabolized
CN1CCN2c3ccccc3Cc3ccccc3C2C1 (stereo not given) [MIANSERIN] | Compound metabolized | Compound NOT metabolized | Compound metabolized | Compound metabolized | Compound metabolized | Compound metabolized | Compound metabolized | Compound NOT metabolized | Compound metabolized | Compound NOT metabolized | Compound metabolized | Compound NOT metabolized | Compound metabolized | Compound metabolized | Compound metabolized | Compound NOT metabolized | Compound NOT metabolized | Compound NOT metabolized | Compound metabolized | Compound NOT metabolized
CC#C[C@]1(O)CC[C@H]2[C@@H]3CCC4=CC(=O)CCC4=C3[C@@H](c3ccc(N(C)C)cc3)C[C@@]21C [MIFEPRISTONE] | Compound metabolized | Compound NOT metabolized | Compound metabolized | Compound metabolized | Compound metabolized | Compound metabolized | Compound NOT metabolized | Compound NOT metabolized | Compound metabolized | Compound metabolized | Compound NOT metabolized | Compound NOT metabolized | Compound NOT metabolized | Compound NOT metabolized | Compound metabolized | Compound NOT metabolized | Compound NOT metabolized | Compound NOT metabolized | Compound metabolized | Compound metabolized
CC(C)(C)NCC(O)COc1cccc2c1CC(O)C(O)C2 (stereo not given) [NADOLOL] | Compound NOT metabolized | Compound metabolized | Compound NOT metabolized | Compound NOT metabolized | Compound metabolized | Compound metabolized | Compound NOT metabolized | Compound NOT metabolized | Compound metabolized | Compound NOT metabolized | Compound NOT metabolized | Compound metabolized | Compound NOT metabolized | Compound NOT metabolized | Compound metabolized | Compound NOT metabolized | Compound NOT metabolized | Compound NOT metabolized | Compound metabolized | Compound metabolized
CC(C)[C@H]1CC[C@H](C(=O)N[C@H](Cc2ccccc2)C(=O)O)CC1 [NATEGLINIDE] | Compound metabolized | Compound metabolized | Compound metabolized | Compound metabolized | Compound metabolized | Compound metabolized | Compound metabolized | Compound metabolized | Compound metabolized | Compound metabolized | Compound metabolized | Compound NOT metabolized | Compound metabolized | Compound metabolized | Compound metabolized | Compound metabolized | Compound NOT metabolized | Compound metabolized | Compound metabolized | Compound metabolized
CN(C)C(=O)Oc1cccc([N+](C)(C)C)c1.[Br-] [NEOSTIGMINE BROMIDE] | Compound NOT metabolized | Compound NOT metabolized | Compound NOT metabolized | Compound NOT metabolized | Compound metabolized | Compound NOT metabolized | Compound NOT metabolized | Compound NOT metabolized | Compound NOT metabolized | Compound NOT metabolized | Compound NOT metabolized | Compound metabolized | Compound NOT metabolized | Compound NOT metabolized | Compound NOT metabolized | Compound NOT metabolized | Compound NOT metabolized | Compound NOT metabolized | Compound NOT metabolized | Compound NOT metabolized
Cc1cc2c(s1)Nc1ccccc1N=C2N1CCN(C)CC1 [OLANZAPINE] | Compound NOT metabolized | Compound NOT metabolized | Compound NOT metabolized | Compound NOT metabolized | Compound metabolized | Compound metabolized | Compound NOT metabolized | Compound NOT metabolized | Compound NOT metabolized | Compound NOT metabolized | Compound NOT metabolized | Compound metabolized | Compound metabolized | Compound NOT metabolized | Compound NOT metabolized | Compound NOT metabolized | Compound NOT metabolized | Compound NOT metabolized | Compound metabolized | Compound NOT metabolized
